Reference: patent publication US8586768B2, “Design, synthesis and functional characterization of rottlerin analogs” (priority 2009, dated 2013)

Tests used:
[1] = tested on: caspase-3 activity in N27 cells; assay: MPP+-induced caspase-3 activity assay in N27 cells; assay type: cell-based, rat; conditions: for inhibition of MPP+-induced caspase-3 activity: MPP+ 24 hr, dose range 1-30 μM; for blockage of MPP+-induced caspase-3 activity: co-treated with 0.3, 1, 3 and 10 μM
Procedure: To determine whether PK analogs are neuroprotective against MPP+-induced increases in caspase-3 and DNA fragmentation, their effects on MPP+-induced increases in caspase-3 activity and DNA fragmentation, markers of apoptotic cell death, were examined.
The second generation PK analogs were further tested to determine whether the analogs are neuroprotective against MPP+-induced apoptotic cell death. The effects on MPP+-induced increases in caspase-3 enzymatic activity were analyzed, a marker of apoptotic cell death. […] At the end of the treatment, cytotoxicity was measured using the caspase-3 assay in a 96-well fluorescence microplate reader.
The third generation PK analogs were further tested to determine whether the analogs are neuroprotective against MPP+-induced apoptotic cell death. The effects on MPP+-induced increases in caspase-3 enzymatic activity were examined, a marker of apoptotic cell death. N27 cells were exposed to 300 μM MPP+ for 24 hr in the presence or absence of three different PK compounds in the dose range of 0.3-10 μM. At the end of the treatment, cytotoxicity was measured using the caspase-3 assay in a 96-well fluorescence microplate reader.
(§1) Rat mesencephalic dopaminergic clonal cells (N27) were used and maintained in RPMI 1640 complete medium supplemented with 10% Fetal Bovine Serum, 1% […] and 1% Penicillin/Streptomycin in a 37° C. incubator with 5% CO2. After 4-6 days in culture, the cells were used for the experiments.
(§2) N27 cells were exposed to MPP^+ for 24 hr in the presence or absence of PK analogs in the dose range of 1-30 μM.

N27 cells = conditions: for toxicity of the analog at higher doses: 30 μM; for neuroprotection compared with rottlerin: caspase-3 activity and cytotoxic cell death; for blockage of MPP+-induced cytotoxicity: co-treated with 0.3, 1 and 3 μM
Procedure: (§3) At the end of the treatment, cytotoxicity was measured using the Sytox cell death assay in a 96-well fluorescence microplate reader.
A second generation of rottlerin analogs was further utilized for neuroprotection studies, as shown as PK201-203 in FIG. 2.
as §3
The analogs were tested in an N27 dopaminergic cell model for their neuroprotective properties. […] At the end of the treatment, cytotoxicity was measured using the Sytox cell death assay in a 96-well fluorescence microplate reader.
as §1, §2

PKCδ = PKCδ (Homo sapiens, UniProt Q05655); assay: In vitro 32P phosphorylation kinase assay with histone substrate; assay type: biochemical; conditions: 0.3-10 μM, pure recombinant PKCδ protein
Procedure: Since PK analogs are directed against PKCδ, it was first determined whether the analogs would inhibit PKCδ enzyme activity in kinase assays. The ability of lead PK analogs to inhibit purified human recombinant PKCδ enzyme activity by 32P phosphorylation kinase assay with histone as the substrate was measured. The in vitro kinase assays were performed with human recombinant PKCδ in the presence or absence of 0.3-10 μM lead PK analogs in the presence histone substrate, [^32P]-ATP and phospholipids. The extent of histone phosphorylation was determined after separation in SDS-PAGE and by phosphoimaging. IC50 was obtained using sigmoidal dose-response curve and non-linear regressional analysis using Graphpad Prism software.
In vitro kinase assays were performed with human recombinant PKCδ in the presence or absence of 0.3-10 μM lead PK analogs in the presence histone substrate, [^32P]-ATP and phospholipids. The extent of histone phosphorylation was determined after separation in SDS-PAGE and by phosphoimaging.

[2] = Activity of simple rottlerin analogs compared with rottlerin (test not named)
Procedure: Design and Synthesis of Novel Rottlerin Analogs. Since Rottlerin has proven to be a difficult target to make synthetically, analogs have been developed and tested in an attempt to localize the region of activity and improve that activity. Initially, simple analogs of Rottlerin itself, obtained from CalBioChem (La Jolla, Calif., Cat #557370), were prepared and analyzed. Two compounds gave important results, one representing a simplified methylene linkage present in the parent compound (PK103), and the other (PK203) came from a simple bromination of natural Rottlerin.

Sequence of PKCδ (Q05655 whole entry): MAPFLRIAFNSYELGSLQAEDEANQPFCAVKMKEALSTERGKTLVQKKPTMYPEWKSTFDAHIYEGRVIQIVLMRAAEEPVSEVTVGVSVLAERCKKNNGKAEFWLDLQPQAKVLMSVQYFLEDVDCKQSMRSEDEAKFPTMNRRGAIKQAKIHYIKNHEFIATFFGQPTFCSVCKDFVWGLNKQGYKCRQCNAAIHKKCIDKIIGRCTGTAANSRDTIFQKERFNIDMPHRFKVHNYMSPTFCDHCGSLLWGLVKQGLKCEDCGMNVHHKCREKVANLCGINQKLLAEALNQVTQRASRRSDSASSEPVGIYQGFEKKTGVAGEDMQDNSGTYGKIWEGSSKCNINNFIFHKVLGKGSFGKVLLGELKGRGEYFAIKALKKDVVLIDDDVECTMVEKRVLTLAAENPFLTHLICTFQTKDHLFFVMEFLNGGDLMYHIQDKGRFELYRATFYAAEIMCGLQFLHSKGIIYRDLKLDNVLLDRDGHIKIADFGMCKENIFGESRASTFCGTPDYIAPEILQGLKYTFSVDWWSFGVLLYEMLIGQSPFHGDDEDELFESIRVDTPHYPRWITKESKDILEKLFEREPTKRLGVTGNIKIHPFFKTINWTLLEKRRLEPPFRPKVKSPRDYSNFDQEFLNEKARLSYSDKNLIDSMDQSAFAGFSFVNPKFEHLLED

Row | SMILES | inhibition of MPP+-induced caspase-3 activity [1] | toxicity of the analog at higher doses (N27 cells) | neuroprotection compared with rottlerin (N27 cells; MPP+ 24 hr) | inhibition of MPP+-induced cytotoxic cell death (N27 cells; MPP+ 24 hr, dose range 1-30 μM) | inhibition of PKCδ kinase activity (PKCδ) | blockage of MPP+-induced caspase-3 activity ([1]; 300 μM MPP+ 24 hr) | blockage of MPP+-induced cytotoxicity (N27 cells; 300 μM MPP+ 24 hr) | activity compared with Rottlerin [2] | relative protection against MPP+-induced caspase-3 activity within the generation ([1]; 300 μM MPP+ 24 hr, 0.3-10 μM) | relative potency against MPP+-induced cytotoxic cell death within the generation (N27 cells; 300 μM MPP+ 24 hr)
1 | COc1cc(OC)c(C(=O)/C=C/c2ccccc2)c2c1C=CC(C)(C)O2 [PK111] | almost completely inhibited | toxic | better neuroprotection than the parent compound rottlerin | almost completely inhibited | inhibited |  |  |  |  | 
2 | COc1cc2c(c3c1C=CC(C)(C)O3)C(=O)CC(c1ccccc1)O2 (stereo not drawn) [PK112] | almost completely inhibited | toxic | better neuroprotection than the parent compound rottlerin |  | inhibited |  |  |  |  | 
3 | CC(=O)c1c(O)c(C)c(O)c(Cc2c(O)c3c(c(C(=O)/C=C/c4ccccc4)c2O)OC(C)(C)CC3)c1O [PK201] |  |  |  |  |  | dose-dependent blockage | significant blockage |  |  | 
4 | CC(=O)c1c(O)c(C)c(O)c(Cc2c(O)c(C(=O)/C=C/c3ccccc3)c3c(c2O)C(Br)C(Br)C(C)(C)O3)c1O (stereo not drawn) [PK203] |  |  |  |  |  | dose-dependent blockage | significant blockage | less activity than Rottlerin |  | 
5 | CC(=O)c1c(O)cc(O)cc1O [PK303, acytyl phloroglucinol] |  |  |  |  |  | significant blockage | significant blockage |  | more effectively protect | more potent inhibitors than PK301
